In ChEMBL document CHEMBL1201862, “PubChem BioAssay data set” (2004):
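Interpolation was linear, between the two tested concentrations surrounding the appropriate level; five concentrations were tested over 48 hours in 96-well plates. GI50: concentration for 50% inhibition of growth.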 Activity calls are given as the source filed them. No stated cut-off is given here; in the data, active = GI50 up to about 1.1 µM and inactive = higher.

Experiments:
Test in all cases: NCI anticancer screen, dose series, 48 h
UACC-62 = test system: UACC-62
NCI-H522 = test system: NCI-H522
HCT-15 = test system: HCT-15
HOP-92 = test system: HOP-92
PC-3 = test system: PC-3
OVCAR-8 = test system: OVCAR-8
BT-549 = test system: BT-549
DU-145 = test system: DU-145
MCF7 = test system: MCF7
M14 = test system: M14
RXF 393 = test system: RXF 393
786-0 = test system: 786-0
KM12 = test system: KM12
IGROV-1 = test system: IGROV-1
U-251 = test system: U-251
A549 = test system: A549
SN12C = test system: SN12C
OVCAR-5 = test system: OVCAR-5
HT-29 = test system: HT-29
TK-10 = test system: TK-10

| Structure (SMILES) | GI50 (UACC-62) | GI50 (NCI-H522) | GI50 (HCT-15) | GI50 (HOP-92) | GI50 (PC-3) | GI50 (OVCAR-8) | GI50 (BT-549) | GI50 (DU-145) | GI50 (MCF7) | GI50 (M14) | GI50 (RXF 393) | GI50 (786-0) | GI50 (KM12) | GI50 (IGROV-1) | GI50 (U-251) | GI50 (A549) | GI50 (SN12C) | GI50 (OVCAR-5) | GI50 (HT-29) | GI50 (TK-10) |
| --- | --- | --- | --- | --- | --- | --- | --- | --- | --- | --- | --- | --- | --- | --- | --- | --- | --- | --- | --- | --- |
| Nc1ccnc2c1ncn2[C@H]1C[C@H](O)[C@@H](CO)O1 | > 100 µM (inactive) | > 100 µM (inactive) | > 100 µM | > 100 µM (inactive) | > 100 µM (inactive) | > 100 µM (inactive) | > 100 µM (inactive) | > 100 µM (inactive) | > 100 µM (inactive) | > 100 µM (inactive) | > 100 µM (inactive) | > 100 µM (inactive) | > 100 µM (inactive) | > 100 µM (inactive) | > 100 µM (inactive) | > 100 µM (inactive) | > 100 µM (inactive) | > 100 µM (inactive) | > 100 µM (inactive) | > 100 µM (inactive) |
| CC(=O)CC1=C(OC(C)C)C2(OCCO2)C1O (stereo not given) | > 100 µM (inactive) | > 100 µM (inactive) | > 100 µM | > 100 µM (inactive) | > 100 µM (inactive) | > 100 µM (inactive) | > 100 µM (inactive) | > 100 µM (inactive) | > 100 µM (inactive) | > 100 µM (inactive) | > 100 µM (inactive) | > 100 µM (inactive) | > 100 µM (inactive) | > 100 µM (inactive) | > 100 µM (inactive) | > 100 µM (inactive) | > 100 µM (inactive) | > 100 µM (inactive) | > 100 µM (inactive) | > 100 µM (inactive) |
| C=C[C@]1(C)C[C@@H](OC(=O)CO)[C@@]2(C)[C@H](C)CC[C@]3(CCC(=O)[C@H]32)[C@@H](C)[C@@H]1O | 7.59 µM (inactive) | 67.9 µM (inactive) | > 94.8 µM | > 86.1 µM (inactive) | > 55.2 µM (inactive) | > 100 µM (inactive) | > 61.4 µM (inactive) | > 100 µM (inactive) | 21.5 µM (inactive) | > 78.9 µM (inactive) | > 59 µM (inactive) | > 100 µM (inactive) | > 100 µM (inactive) | > 91.2 µM (inactive) | > 79.3 µM (inactive) | > 100 µM (inactive) | > 100 µM (inactive) | > 100 µM (inactive) | > 100 µM (inactive) | > 59.3 µM (inactive) |
| Cn1c2ccccc2c2c3c(c4c5ccccc5n(C5OC(CO)C(O)C(O)C5O)c4c21)C(=O)OC3=O (stereo not given) | > 100 µM (inactive) | > 100 µM (inactive) | > 100 µM | > 100 µM (inactive) | > 100 µM (inactive) | > 100 µM (inactive) | > 100 µM (inactive) | > 100 µM (inactive) | > 100 µM (inactive) | > 100 µM (inactive) | > 100 µM (inactive) | > 100 µM (inactive) | > 100 µM (inactive) | > 100 µM (inactive) | > 100 µM (inactive) | > 100 µM (inactive) | > 100 µM (inactive) | > 100 µM (inactive) | > 100 µM (inactive) | > 100 µM (inactive) |
